Common to all, as to type: cell-based
One data set deals with GR10 lung cancer cells. Description: Cancer cell survival test of target drugs, GR10.
The subject of data set [1] is Hela cervical cancer cells. Description: Biochip drug efficacy test on Hela cervical cancer cells. From the text:
(§1) The biochip 10 can be first served as a simulation model of a drug screening for cancer. This embodiment is an example of a drug screening for candidate drugs for cervical cancer taking from a target patient. It is worth mentioning that the biochip 10 provided by the present invention, the simulated vascular channel 12 in the preferred embodiment can be used for simulating an in-vivo environment of cervical cancer or breast cancer which these cancer cells are normally metabolized from the blood vessel in real human body. However, by switching the simulated vascular channel 12 into a gas or air flow channel (simulation of human trachea), it can be used as a simulation for lung cancer as another suitable applications for the present invention.
(§2) In this embodiment, when producing the simulated vascular channel 12, the fluid containing endothelial cells will be fluxed for completely adhering, attaching and even starting to be cultured to the inner surface of the simulated vascular channel 12 at 37° C. for one day. Further, the peristaltic pump is connected to circulate as a biosystem. For a single simulated vascular channel 12, it is preferred to have a perfusion rate as 13 μL/min. […]
With reference to FIGS. 8A to 8C, in this embodiment, three different cervical cancer cells are used to perform quantitative and qualitative tests of the efficacy of different cancer therapeutic drugs. […]

Data set [2] deals with SiHa cervical cancer cells. In words: Biochip drug efficacy test on SiHa cervical cancer cells. The following applies: compared with 5-Fu and Lipodox.
Description: as §1, §2
(§3) With reference to FIGS. 8A to 8C, in this embodiment, three different cervical cancer cells are used to perform quantitative and qualitative tests of the efficacy of different cancer therapeutic drugs.

Data set [3] has as its system CCC cervical cancer cells. Description: Biochip drug efficacy test on CCC cervical cancer cells. The conditions noted are these: compared with 5-Fu and Lipodox.
Description: as §1, §2, §3

A further data set relates to breast cancer cells. In words: Cell viability of breast cancer cells in biochip. The conditions noted are these: for live cancer cells (cell viability, FIG. 14): after culturing for 3 days, high concentrations. An excerpt:
FIG. 14 is a validation test of cell viability of breast cancer cells treating by couples of cancer therapeutic drugs. […] By such, the present invention can be used to determine which cancer treatment drugs are effective for the patient.
FIG. 15 is an immunohistochemistry corresponded to the test result of Taxol drug in FIG. 14.

A further data set relates to lung cancer cells. Description: Cytotoxicity test on lung cancer cells in biochip, static vs dynamic perfusion. From the text:
With reference to FIGS. 12A and 12B, cytotoxicity tests with 5-Fu cancer cell therapeutic drug are presented.

SMILES strings stand for the structures.

With `C#Cc1cccc(Nc2ncnc3cc(OCCOC)c(OCCOC)cc23)c1` [Erlotinib], the “effect on cancer cell survival (FIG. 13B)” value in the data set with GR10 lung cancer cells was “drug resistance”.
On to `CC(=O)O[C@H]1C(=O)[C@@]2(C)[C@H]([C@H](OC(=O)c3ccccc3)[C@]3(O)C[C@H](OC(=O)[C@H](O)[C@@H](NC(=O)c4ccccc4)c4ccccc4)C(C)=C1C3(C)C)[C@]1(OC(C)=O)CO[C@@H]1C[C@@H]2O` [Taxol], for which the “cancer cell killing effect (immunohistochemistry, apoptotic cells)” value in data set [1] (7th day) is listed as “significant cancer cell killing effect”. The “cancer cell poisoning effect (bar diagrams, FIG. 8A)” value in data set [1] (compared with 5-Fu and Lipodox) was “better cancer cell poisoning effect among other two drugs”. Further, the “cancer cell poisoning effect (bar diagrams, FIG. 8B)” value in data set [2] was “better cancer cell poisoning effect among other two drugs”. Moreover, the “cancer cell poisoning effect (bar diagrams, FIG. 8C)” value in data set [3] was “better cancer cell poisoning effect among other two drugs”. In the data set with breast cancer cells, the “dead cancer cells (immunohistochemistry, FIG. 15)” value was “more and more dead cancer cells are shown”; the “live cancer cells (cell viability, FIG. 14)” value (“live cancer cells” below) was “significantly reducing live cancer cells”.
With `Nc1nc2[nH]cc(CCc3ccc(C(=O)N[C@@H](CCC(=O)O)C(=O)O)cc3)c2c(=O)[nH]1` [Pemetrexed], in the data set with breast cancer cells (Taxol, Cisplatin, Gemcitabine vs Pemetrexed), the “reaction compared with the other drugs (FIG. 14)” value is recorded as “These three drugs show better reaction than Pemetrexed”.
As to `Nc1ccn([C@@H]2O[C@H](CO)[C@@H](O)C2(F)F)c(=O)n1` [Gemcitabine], in the data set on breast cancer cells, the “live cancer cells” value is listed as “significantly reducing live cancer cells”.
As to `COc1cc2ncnc(Nc3ccc(F)c(Cl)c3)c2cc1OCCCN1CCOCC1` [Gefitinib], the “effect on cancer cell survival (FIG. 13B)” value in the data set on GR10 lung cancer cells was “drug resistance”.
With `O=c1[nH]cc(F)c(=O)[nH]1` [5-Fu], in the data set with lung cancer cells (dynamic perfusion compared with static culture), the “cytotoxicity (FIG. 12A)” value is given as “cytotoxicity of dynamic perfusion is more remarkable”. Further, the “dead cancer cells (immunohistochemistry, FIG. 12B)” value in the data set on lung cancer cells (high dose, dynamic culture of perfusion) is “dead cancer cells are increased”.
Consider `N.N.[Cl][Pt][Cl]` [Cisplatin], for which, in the data set on breast cancer cells, the “live cancer cells” value is on record as “significantly reducing live cancer cells”.

Source of the values: patent publication US20230011168A1, “Bio-Chips and Production Method Thereof” (China Medical University, priority 2021, published 2023).
